Measurements published in patent US20260007681A1, “INDOLE DERIVATIVES AS ESTROGEN RECEPTOR DEGRADERS” (REGENTS OF THE UNIVERSITY OF MICHIGAN, priority 2022, published 2026).

Assays:
ER = ER (Homo sapiens (Human), UniProt P03372); experiment: In-cell western blot analysis of relative ER percentage (Compounds B1-B278); format: cell-based; conditions: ER degradation, 16 hours, read-out: ICW DC50
How it was run: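 In-cell western: after 16 h compound exposure (0.5% DMSO final), fixed and permeabilized cells are probed with anti-ER plus anti-GAPDH and near-infrared secondaries. Relative ER percentage compares treated wells against untreated and DMSO wells taken as 100%; seeding 40,000 or 10,000 cells/well.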

[1] = Cell growth assay (WST-8) (Compounds B1-B278); format: cell-based; conditions: 96 h; T47D cell line; WST-8, 4 days; read-out: Cell Growth Inhibition in T47D cell line IC50
How it was run: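 Read-out is WST-8 absorbance at 450 nm (2.5 h, 37° C) as a fraction of vehicle control, from three separate repeats. Compound exposure lasted 4 days, starting one day after plating 1500 cells/well.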

ER, sequence (P03372 whole entry): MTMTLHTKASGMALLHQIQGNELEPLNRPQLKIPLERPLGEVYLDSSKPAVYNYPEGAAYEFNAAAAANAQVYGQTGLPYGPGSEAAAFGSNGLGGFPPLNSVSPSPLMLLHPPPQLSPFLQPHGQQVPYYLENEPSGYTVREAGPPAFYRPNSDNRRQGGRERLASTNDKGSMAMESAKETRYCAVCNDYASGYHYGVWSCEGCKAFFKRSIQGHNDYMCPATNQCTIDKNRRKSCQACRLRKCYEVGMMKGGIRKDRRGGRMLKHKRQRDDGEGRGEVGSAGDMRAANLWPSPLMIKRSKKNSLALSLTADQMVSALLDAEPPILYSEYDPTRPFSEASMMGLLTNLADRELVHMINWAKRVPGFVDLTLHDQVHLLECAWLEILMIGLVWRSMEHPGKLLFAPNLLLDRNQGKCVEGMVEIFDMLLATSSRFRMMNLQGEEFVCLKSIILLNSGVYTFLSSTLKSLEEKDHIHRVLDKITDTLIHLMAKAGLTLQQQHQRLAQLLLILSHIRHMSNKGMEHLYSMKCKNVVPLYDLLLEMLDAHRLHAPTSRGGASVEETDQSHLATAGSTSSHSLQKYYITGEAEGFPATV

| SMILES | DC50 (ER) [nM] | IC50 [1] [nM] |
| --- | --- | --- |
| C[C@@H]1Cc2c([nH]c3ccccc23)[C@@H](c2cnc(N3CCC(CCN4CCN5c6ccc7c(c6OC[C@H]5C4)CN(C4CCC(=O)NC4=O)C7=O)CC3)nc2)N1CC(F)(F)CO (stereo partly drawn) [Compound B159, 3-((R)-7-(2-(1-(5-((1R,3R)-2-(2,2-difluoro-3-hydroxypropyl)-3-methyl-2,3,4,9-tetrahydro-1H-pyrido[3,4-b]indol-1-yl)pyrimidin-2-yl)piperidin-4-yl)ethyl)-1-oxo-1,3,5,5a,6,7,8,9-octahydro-2H-pyrazino[1′,2′:4,5][1,4]oxazino[2,3-e]isoindol-2-yl)piperidine-2,6-dione] | > 100 | > 10 |
| C[C@@H]1Cc2c([nH]c3ccccc23)[C@@H](c2cnc(N3CCC(CCN4CCN5c6ccc7c(c6OC[C@H]5C4)CN(C4CCC(=O)NC4=O)C7=O)CC3)nc2)N1CC(F)F (stereo partly drawn) [Compound B160, 3-((R)-7-(2-(1-(5-((1R,3R)-2-(2,2-difluoroethyl)-3-methyl-2,3,4,9-tetrahydro-1H-pyrido[3,4-b]indol-1-yl)pyrimidin-2-yl)piperidin-4-yl)ethyl)-1-oxo-1,3,5,5a,6,7,8,9-octahydro-2H-pyrazino[1′,2′:4,5][1,4]oxazino[2,3-e]isoindol-2-yl)piperidine-2,6-dione] | > 100 | 1 to 10 |
| C[C@@H]1Cc2c([nH]c3ccccc23)[C@@H](c2cnc(N3CCC4(CCC(CN5CCN6c7ccc8c(c7OC[C@H]6C5)CN(C5CCC(=O)NC5=O)C8=O)CC4)CC3)nc2)N1CC(F)F (stereo partly drawn) [Compound B161, 3-((R)-7-((3-(5-((1R,3R)-2-(2,2-difluoroethyl)-3-methyl-2,3,4,9-tetrahydro-1H-pyrido[3,4-b]indol-1-yl)pyrimidin-2-yl)-3-azaspiro[5.5]undecan-9-yl)methyl)-1-oxo-1,3,5,5a,6,7,8,9-octahydro-2H-pyrazino[1′,2′:4,5][1,4]oxazino[2,3-e]isoindol-2-yl)piperidine-2,6-dione] | > 100 | > 10 |
| C[C@@H]1Cc2c([nH]c3ccccc23)[C@@H](c2cnc(N3CCC4(CCC(CN5CCN6c7ccc8c(c7OC[C@H]6C5)CN(C5CCC(=O)NC5=O)C8=O)CC4)CC3)nc2)N1CC(C)(C)F (stereo partly drawn) [Compound B162, 3-((R)-7-((3-(5-((1R,3R)-2-(2-fluoro-2-methylpropyl)-3-methyl-2,3,4,9-tetrahydro-1H-pyrido[3,4-b]indol-1-yl)pyrimidin-2-yl)-3-azaspiro[5.5]undecan-9-yl)methyl)-1-oxo-1,3,5,5a,6,7,8,9-octahydro-2H-pyrazino[1′,2′:4,5][1,4]oxazino[2,3-e]isoindol-2-yl)piperidine-2,6-dione] | > 100 | > 10 |
| C[C@@H]1Cc2c([nH]c3ccccc23)[C@@H](c2cnc(N3CCC4(CCC(N5CCN6c7ccc8c(c7OC[C@H]6C5)CN(C5CCC(=O)NC5=O)C8=O)CC4)CC3)nc2)N1CC(F)F (stereo partly drawn) [Compound B163, 3-((R)-7-(3-(5-((1R,3R)-2-(2,2-difluoroethyl)-3-methyl-2,3,4,9-tetrahydro-1H-pyrido[3,4-b]indol-1-yl)pyrimidin-2-yl)-3-azaspiro[5.5]undecan-9-yl)-1-oxo-1,3,5,5a,6,7,8,9-octahydro-2H-pyrazino[1′,2′:4,5][1,4]oxazino[2,3-e]isoindol-2-yl)piperidine-2,6-dione] | > 100 | > 10 |
| C[C@@H]1Cc2c([nH]c3ccccc23)[C@@H](c2cnc(N3CCC4(CCC(N5CCN6c7ccc8c(c7OC[C@H]6C5)CN(C5CCC(=O)NC5=O)C8=O)CC4)CC3)nc2)N1CC(C)(C)F (stereo partly drawn) [Compound B164, 3-((R)-7-(3-(5-((1R,3R)-2-(2-fluoro-2-methylpropyl)-3-methyl-2,3,4,9-tetrahydro-1H-pyrido[3,4-b]indol-1-yl)pyrimidin-2-yl)-3-azaspiro[5.5]undecan-9-yl)-1-oxo-1,3,5,5a,6,7,8,9-octahydro-2H-pyrazino[1′,2′:4,5][1,4]oxazino[2,3-e]isoindol-2-yl)piperidine-2,6-dione] | > 100 | 1 to 10 |
| C[C@@H]1Cc2c([nH]c3ccccc23)[C@@H](c2cnc(N3CCC4(CC3)CC(N3CCN5c6ccc7c(c6OC[C@H]5C3)CN(C3CCC(=O)NC3=O)C7=O)CO4)nc2)N1CC(C)(C)F (stereo partly drawn) [Compound B165, 3-((5aR)-7-(8-(5-((1R,3R)-2-(2-fluoro-2-methylpropyl)-3-methyl-2,3,4,9-tetrahydro-1H-pyrido[3,4-b]indol-1-yl)pyrimidin-2-yl)-1-oxa-8-azaspiro[4.5]decan-3-yl)-1-oxo-1,3,5,5a,6,7,8,9-octahydro-2H-pyrazino[1′,2′:4,5][1,4]oxazino[2,3-e]isoindol-2-yl)piperidine-2,6-dione] | 10 to 100 | 1 to 10 |
| C[C@@H]1Cc2c([nH]c3ccccc23)[C@@H](c2cnc(N3CCC4(CC3)CC(N3CCN5c6ccc7c(c6OC[C@H]5C3)CN(C3CCC(=O)NC3=O)C7=O)CO4)nc2)N1CC(F)F (stereo partly drawn) [Compound B166, 3-((5aR)-7-(8-(5-((1R,3R)-2-(2,2-difluoroethyl)-3-methyl-2,3,4,9-tetrahydro-1H-pyrido[3,4-b]indol-1-yl)pyrimidin-2-yl)-1-oxa-8-azaspiro[4.5]dccan-3-yl)-1-oxo-1,3,5,5a,6,7,8,9-octahydro-2H-pyrazino[1′,2′:4,5][1,4]oxazino[2,3-e]isoindol-2-yl)piperidine-2,6-dione] | 10 to 100 | 1 to 10 |
| C[C@@H]1Cc2c([nH]c3ccccc23)[C@@H](c2cnc(N3CC4(CCC(CN5Cc6cc7c(cc6C5)C(=O)N(C5CCC(=O)NC5=O)C7=O)CC4)C3)nc2)N1CC(F)(F)CO (stereo partly drawn) [Compound B167, 6-((2-(5-((1R,3R)-2-(2,2-difluoro-3-hydroxypropyl)-3-methyl-2,3,4,9-tetrahydro-1H-pyrido[3,4-b]indol-1-yl)pyrimidin-2-yl)-2-azaspiro[3.5]nonan-7-yl)methyl)-2-(2,6-dioxopiperidin-3-yl)-6,7-dihydropyrrolo[3,4-f]isoindole-1,3(2H,5H)-dione] | > 100 | > 10 |
| C[C@@H]1Cc2c([nH]c3ccccc23)[C@@H](c2cnc(N3CCC4(CC3)CC(CN3CCN5c6ccc7c(c6OC[C@H]5C3)CN(C3CCC(=O)NC3=O)C7=O)CO4)nc2)N1CC(C)(C)F (stereo partly drawn) [Compound B168, 3-((5aR)-7-((8-(5-((1R,3R)-2-(2-fluoro-2-methylpropyl)-3-methyl-2,3,4,9-tetrahydro-1H-pyrido[3,4-b]indol-1-yl)pyrimidin-2-yl)-1-oxa-8-azaspiro[4.5]decan-3-yl)methyl)-1-oxo-1,3,5,5a,6,7,8,9-octahydro-2H-pyrazino[1′,2′:4,5][1,4]oxazino[2,3-e]isoindol-2-yl)piperidine-2,6-dione] | < 10 | 1 to 10 |
| C[C@@H]1Cc2c([nH]c3ccccc23)[C@@H](c2ccc(N3CCC4(CC3)CC(CN3CCN5c6ccc7c(c6OC[C@H]5C3)CN(C3CCC(=O)NC3=O)C7=O)C4)nc2)N1CC(F)F (stereo partly drawn) [Compound B169, 3-((R)-7-((7-(5-((1R,3R)-2-(2,2-difluoroethyl)-3-methyl-2,3,4,9-tetrahydro-1H-pyrido[3,4-b]indol-1-yl)pyridin-2-yl)-7-azaspiro[3.5]nonan-2-yl)methyl)-1-oxo-1,3,5,5a,6,7,8,9-octahydro-2H-pyrazino[1′,2′:4,5][1,4]oxazino[2,3-e]isoindol-2-yl)piperidine-2,6-dione] | > 100 | 1 to 10 |
| COc1cc(N2CCC3(CCN(C(=O)CN4Cc5cc6c(cc5C4)C(=O)N(C4CCC(=O)NC4=O)C6=O)CC3)CC2)ccc1[C@@H]1c2[nH]c3ccccc3c2C[C@@H](C)N1CC(C)(C)F (stereo partly drawn) [Compound B170, 2-(2,6-dioxopiperidin-3-yl)-6-(2-(9-(4-((1R,3R)-2-(2-fluoro-2-methylpropyl)-3-methyl-2,3,4,9-tetrahydro-1H-pyrido[3,4-b]indol-1-yl)-3-methoxyphenyl)-3,9-diazaspiro[5.5]undecan-3-yl)-2-oxoethyl)-6,7-dihydropyrrolo[3,4-f]isoindole-1,3(2H,5H)-dione] | > 100 | 1 to 10 |
| C[C@@H]1Cc2c([nH]c3ccccc23)[C@@H](c2cnc(N3CCC4(CC3)CC(CN3CCN5c6cc7c(cc6OC[C@@H]5C3)C(=O)N(C3CCC(=O)NC3=O)C7)CO4)nc2)N1CC(F)(F)CO (stereo partly drawn) [Compound B171, 3-((4aS)-3-((8-(5-((1R,3R)-2-(2,2-difluoro-3-hydroxypropyl)-3-methyl-2,3,4,9-tetrahydro-1H-pyrido[3,4-b]indol-1-yl)pyrimidin-2-yl)-1-oxa-8-azaspiro[4.5]dccan-3-yl)methyl)-8-oxo-1,2,3,4,4a,5,8,10-octahydro-9H-pyrazino[1′,2′:4,5][1,4]oxazino[2,3-f]isoindol-9-yl)piperidine-2,6-dione] | < 10 | > 10 |
| C[C@@H]1Cc2c([nH]c3ccccc23)[C@@H](c2cnc(N3CCC4(CC3)CC(CN3CCN5c6ccc7c(c6OC[C@H]5C3)CN(C3CCC(=O)NC3=O)C7=O)CO4)nc2)N1CC(F)(F)CO (stereo partly drawn) [Compound B172, 3-((5aR)-7-((8-(5-((1R,3R)-2-(2,2-difluoro-3-hydroxypropyl)-3-methyl-2,3,4,9-tetrahydro-1H-pyrido[3,4-b]indol-1-yl)pyrimidin-2-yl)-1-oxa-8-azaspiro[4.5]decan-3-yl)methyl)-1-oxo-1,3,5,5a,6,7,8,9-octahydro-2H-pyrazino[1′,2′:4,5][1,4]oxazino[2,3-e]isoindol-2-yl)piperidine-2,6-dione] | > 100 | < 1 |
